{
  "source": "patent US20250099475A1",
  "about": "“METHODS OF TREATING HYPERTENSION BY PERIODIC SUPPRESSION OF ALDOSTERONE SYNTHASE” (Mineralys Therapeutics, Inc., priority 2022, published 2025)",
  "origin": "cited, not measured here",
  "settings": "in vivo; cited from earlier work",
  "data": [
    {"smiles": "CC(=O)S[C@@H]1CC2=CC(=O)CC[C@]2(C)[C@H]2CC[C@@]3(C)[C@@H](CC[C@@]34CCC(=O)O4)[C@H]12", "note": "[Spironolactone]", "values": [
      {"measurement": "risk of hyperkalemia", "value": "≤ 10", "unit": "%"}
    ]}
  ]
}
